Laboratory results from patent publication US11510911B2 (AJOU UNIVERSITY INDUSTRY—ACADEMIC COOPERATION FOUNDATION, priority 2017, dated 2022).

Key:
[1] = tested on: Hep3B cells; experiment: Transwell (Boyden chamber) cell migration assay, Hep3B cells; format: cell-based, Human
Description: (§1) For cell proliferation analysis, 5×10^3 cells were divided into 96-well plates and cultured in DMEM containing various concentrations of anti-cancer drugs and 5% FBS for 48 hours. Cell viability was measured through WST-1 assay (Roche, Gangnam-gu, Seoul, Korea) and four repetitions of each experiment were performed at least 3 times. Cell migration analysis was performed in a 24-well Boyden chamber (8 μm pore size; Coastal; Corning Life Sciences, Lowell, Mass.), 1×10^5 cells were suspended in serum-free 0.2 ml DMEM and added to the upper chamber inlet, and the lower chamber was filled with 0.6 ml DMEM/10% fetal bovine serum. After 6 hours, the cells on the bottom of the membrane were fixed, stained and counted at ×200 magnification with four microscopes.

[2] = tested on: Hep3B cells; experiment: Cell viability / proliferation (WST-1 assay), Hep3B cells expressing vector, SULF2-WT or SULF2-N491K; format: cell-based, Human; settings: for cell proliferation: 0.01-10 μM
Description: (§2) Human liver cancer cells of Hep3B, Huh7, HepG2 and PLC/PRF5 were cultured in DMEM supplemented with 10% FBS, 100 U/ml penicillin and 100 μg/ml streptomycin.
(§3) A lentiviral construct expressing STAT1 shRNA, p65 shRNA and LCN2 shRNA was purchased from Sigma-Aldrich. Wild-type SULF2, SULF2-N491K, wild-type ERC1, ERC1-H721Q, wild-type NTRK3, NTRK3-N522K, wild-type SHC1 and SHC1-SHC1-P55 cDNA constructs were cloned into MCS-EF1-Puro (System Biosciences, Mountain), the lentiviral vectors for cDNA expression. All lentiviral vectors were transfected into 293 TN cells (System Biosciences) using the Lipofectamine 3000 transfection reagent (Invitrogen, Waltham, Mass., USA). Two days after lentiviral plasmid transfection, particles were collected and used to infect HCC cells. The HDD cells infected with lentivirus were selected using puromycin for 1 week.
Then, in order to identify whether or not the SULF2 mutation changed drug susceptibility, an overexpression system for wild-type SULF2 and SULF2-N491K mutants in Hep3B cells that rarely expressed endogenous SULF2 was established (Lai J P et al., Hepatology 47: 1211-22, 2008).
as §1

[3] = tested on: LCN2 mRNA; experiment: LCN2 mRNA expression by qRT-PCR in Hep3B vector, SULF2-WT and SULF2-N491K cells; format: cell-based, Human
Description: (§4) Each cell was collected using an RNeasy kit (Qiagen, Venlo, Netherlands) and total RNA was isolated. The mRNA was reverse-transcribed into cDNA using a PrimeScript RT kit (Takara, Shiga, Japan), and then PCR was conducted using the CFX96 Real-Time PCR Detection System (Bio-Rad Laboratories, Hercules, Calif., USA) equipped with SsoAdvanced Universal Supermixes (Bio-Rad). The analysis of each sample was run at least three times for each experiment, and the data for the number was reported in a relative quantity: Mean value (standard deviation) of 2^−ΔΔCT±S.D.

[4] = tested on: HepG2 cells; experiment: Cell viability (WST-1 assay), HepG2 cells; format: cell-based; settings: Homo sapiens
Description: as §2, §3, §1

[5] = tested on: SULF2 mRNA; experiment: SULF2 mRNA expression by qRT-PCR in HepG2 and Huh7 cells; format: cell-based, Human; settings: sorafenib up to 10 μM for 1, 2, 4 and 12 weeks
Description: as §4

[6] = tested on: amphiregulin mRNA; experiment: Amphiregulin mRNA level by qRT-PCR in Hep3B vector, SULF2-WT and SULF2-N491K cells; format: cell-based, Human; settings: 2 μM sorafenib, 72 hours
Description: as §4

[7] = tested on: Hep3B-SR, SULF2-WT-SR, HepG2-SR and Huh7-SR cells; experiment: Cell viability of sorafenib-resistant (SR) liver cancer cells; format: cell-based, Human; settings: LCN2 siRNA 24 hours, then 5 μM sorafenib 48 hours
Description: as §1
After culture for several months, the sorafenib-resistant (SR) cell lines, Vector-SR, SULF2-WT-SR and SULF2-N491K-SR were obtained.
Thus, control siRNA and siRNA for human LCN2 were purchased from Santa Cruz Biotechnology, and each cell was transfected with siRNA using a transfection reagent (Santa Cruz) according to the manufacturer's instructions.

[8] = tested on: Huh7 cells; experiment: Cell viability (WST-1 assay), Huh7 cells; format: cell-based, Human
Description: as §2, §3, §1

[9] = tested on: EGFR; experiment: Western blotting of EGFR downstream signaling after amphiregulin treatment; format: cell-based, Human; settings: SULF2-WT cells, amphiregulin 50 ng/ml
Description: In order to prepare total cell lysate, cells were lysed in a high-salt-content lysis buffer (20 mM Tris-HCl [pH 8.0], 1% Triton X-100, 2 mM EDTA and 1 mM phenylmethylsulfonyl fluoride), incubated on ice for 20 minutes, and centrifuged for 20 minutes to remove cell debris. A total of 20 μg of total cell lysate was used for SDS-polyacrylamide gel electrophoresis, and proteins were transferred to a nitrocellulose membrane and incubated overnight with each antibody at 4° C. The membrane was then incubated at room temperature for 1 hour with a peroxidase-conjugated secondary antibody (PIERCE, Rockford, Ill., USA), and signals were detected using a chemiluminescence detection kit (PIERCE).
Thus, in order to elucidate the mechanism by which sorafenib-mediated EGFR activation is differentially regulated between SULF2-WT and SULF2-N491K, the effect of exogenous stimulation of EGFR by treatment with recombinant human amphiregulin (rhAR) on three types of cells was compared.

COc1cc2ncnc(Nc3ccc(F)c(Cl)c3)c2cc1OCCCN1CCOCC1 [gefitinib]
cell migration ([1]; SULF2-WT cells compared with vector and SULF2-N491K cells): significantly inhibited | cell growth ([2]; SULF2-WT cells compared with vector and SULF2-N491K cells, 48 hours): significantly inhibited | LCN2 mRNA expression ([3]; SULF2-WT cells, 48 hours, OKN-007 200 μM, gefitinib 5 μM): significantly inhibited

CCN(CC)CCCCNc1ncc2cc(-c3cc(OC)cc(OC)c3)c(NC(=O)NC(C)(C)C)nc2n1 [PD173074]
cell migration ([1]; vector, SULF2-WT or SULF2-N491K cells treated with PD173074): inhibition of great migration was not found | cell proliferation ([2]; SULF2-WT cells, 48 hours): did not inhibit | cell proliferation ([2]; vector and SULF2-N491K cells, 48 hours): inhibited cell proliferation

Nc1ncnc2c1c(-c1cccc(OCc3ccccc3)c1)cn2[C@H]1C[C@@H](CN2CCC2)C1 [AEW541]
IC50 ([4]; HepG2, HepG2 cells expressing ERC1-H721Q): 2.63 µM | IC50 ([4]; HepG2, HepG2 cells expressing ERC1-WT): 4.25 µM

CNC(=O)c1cc(Oc2ccc(NC(=O)Nc3ccc(Cl)c(C(F)(F)F)c3)cc2)ccn1 [Sorafenib]
SULF2 mRNA expression [5]: significantly increased in a time-dependent manner | amphiregulin expression [6]: significantly increased | IC50 ([4]; HepG2, HepG2 cells, NT shRNA): 4.97 µM | IC50 ([4]; HepG2, HepG2 cells, SULF2 knockdown (SULF2 shRNA)): 2.38 µM | IC50 ([4]; HepG2, HepG2 cells, sorafenib in combination with OKN-007): 1.76 µM | sorafenib susceptibility after LCN2 knockdown [7]: restoration of sorafenib susceptibility | susceptibility to sorafenib with OKN-007 treatment ([2]; Hep3B vector and SULF2-N491K cells, 48 hours): did not change | IC50 ([2]; Hep3B-SULF2-WT cells): 7.51 µM | IC50 ([2]; Homo sapiens, Hep3B, 48 h, Hep3B cells expressing wild-type SULF2, sorafenib in combination with OKN-007, 48 hours): 3.17 µM | IC50 ([2]; Homo sapiens, Hep3B, 48 h, SULF2-WT cells with knockdown of LCN2 by shRNA): 3.95 µM | IC50 ([2]; Homo sapiens, Hep3B, Hep3B cells expressing SULF2-N491K): 3.54 µM | IC50 ([2]; Homo sapiens, Hep3B, Hep3B-SULF2-WT cells): 7.51 µM | IC50 ([2]; Homo sapiens, Hep3B, Hep3B-vector cells): 3.37 µM | IC50 ([8]; Homo sapiens, Huh-7, 48 h, Huh7 cells, NT shRNA, 48 hours): 10.2 µM | IC50 ([8]; Homo sapiens, Huh-7, 48 h, Huh7 cells, SULF2 knockdown (SULF2 shRNA), 48 hours): 6.17 µM | IC50 ([8]; Homo sapiens, Huh-7, Huh7 cells expressing NTRK3-N522K): 5.8 µM | IC50 ([8]; Homo sapiens, Huh-7, Huh7 cells expressing NTRK3-WT): 7.64 µM | IC50 ([8]; Homo sapiens, Huh-7, Huh7 cells, sorafenib in combination with 200 μM OKN-007): 5.06 µM | LCN2 mRNA expression ([3]; SULF2-WT cells, 2 μM sorafenib, 72 hours): significantly induced | LCN2 mRNA expression ([3]; vector and SULF2-N491K cells, 2 μM sorafenib, 72 hours): induced only a small amount

CN[C@@H](C)C(=O)N[C@H](C(=O)N1CC[C@H]2CCN(CCc3ccccc3)C[C@H]21)C1CCCCC1 [LBW242]
IC50 ([8]; Huh7 cells expressing SHC1-P5S): 2.26 µM | IC50 ([8]; Huh7 cells expressing SHC1-WT): 4.26 µM

N#CC(=C(/N)Sc1ccccc1N)/C(C#N)=C(/N)Sc1ccccc1N [MEK inhibitor]
LCN2 expression ([3]; vector or SULF2-N491K cells, U0126 10 μM, 48 hours): did not inhibit

B1: amphiregulin: recombinant human amphiregulin, the EGFR ligand, from R & D systems (protein, UniProt P15514 101-187, looked up)
Amphiregulin: SVRVEQVVKPPQNKTESENTSDKPKRKKKGGKNGKNRRNRKKKNPCNAEFQNFCIHGECKYIEHLEAVTCKCQQEYFGERCGEKSMK
activation of EGFR and downstream signaling pathways including STAT1 and ERK [9]: elevated activation | p65 and LCN2 protein levels [9]: significantly increased
